We go through 45 molecules from patent publication US20250215014A1, “KINASE INHIBITORS, PREPARATION METHODS AND USES THEREOF” (InventisBio Co., Ltd., priority 2022, published 2025).

One assay addresses DGKa (Homo sapiens (Human), UniProt P23743). Briefly: DGK ADP-Glo Kinase Assay (DGKa). The class given is biochemical. The note with it: 10 nM DGKa, 15 uM ATP. As for the experimental part: (§1) Luminescence was recorded using an Tecan SPARK microplate reader.
For the next assay, the target named is DGKz (Homo sapiens (Human), UniProt Q13574). Nature of the assay: DGK ADP-Glo Kinase Assay (DGKz). The format is biochemical. The note with it: 5 nM DGKz, 15 uM ATP. As for the experimental part:
as §1

DGKa, sequence (P23743 whole entry): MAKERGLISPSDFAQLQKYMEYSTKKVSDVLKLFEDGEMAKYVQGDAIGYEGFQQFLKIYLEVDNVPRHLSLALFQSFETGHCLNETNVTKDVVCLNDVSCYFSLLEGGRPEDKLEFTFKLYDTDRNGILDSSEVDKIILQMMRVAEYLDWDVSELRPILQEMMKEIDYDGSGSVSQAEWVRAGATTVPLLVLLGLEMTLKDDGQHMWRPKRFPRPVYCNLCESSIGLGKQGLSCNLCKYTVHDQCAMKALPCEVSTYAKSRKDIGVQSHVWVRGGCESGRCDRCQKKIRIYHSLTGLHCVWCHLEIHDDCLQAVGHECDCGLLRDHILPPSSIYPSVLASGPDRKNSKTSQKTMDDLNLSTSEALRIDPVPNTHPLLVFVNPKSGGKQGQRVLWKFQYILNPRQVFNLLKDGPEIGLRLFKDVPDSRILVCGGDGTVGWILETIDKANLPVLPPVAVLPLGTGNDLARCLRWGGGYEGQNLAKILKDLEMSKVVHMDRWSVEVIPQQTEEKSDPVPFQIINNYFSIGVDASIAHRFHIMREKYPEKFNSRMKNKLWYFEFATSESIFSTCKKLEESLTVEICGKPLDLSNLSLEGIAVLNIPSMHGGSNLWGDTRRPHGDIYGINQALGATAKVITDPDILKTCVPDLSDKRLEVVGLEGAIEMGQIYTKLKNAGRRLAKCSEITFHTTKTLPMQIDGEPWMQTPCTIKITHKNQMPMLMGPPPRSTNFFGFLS
DGKz, sequence (Q13574 whole entry): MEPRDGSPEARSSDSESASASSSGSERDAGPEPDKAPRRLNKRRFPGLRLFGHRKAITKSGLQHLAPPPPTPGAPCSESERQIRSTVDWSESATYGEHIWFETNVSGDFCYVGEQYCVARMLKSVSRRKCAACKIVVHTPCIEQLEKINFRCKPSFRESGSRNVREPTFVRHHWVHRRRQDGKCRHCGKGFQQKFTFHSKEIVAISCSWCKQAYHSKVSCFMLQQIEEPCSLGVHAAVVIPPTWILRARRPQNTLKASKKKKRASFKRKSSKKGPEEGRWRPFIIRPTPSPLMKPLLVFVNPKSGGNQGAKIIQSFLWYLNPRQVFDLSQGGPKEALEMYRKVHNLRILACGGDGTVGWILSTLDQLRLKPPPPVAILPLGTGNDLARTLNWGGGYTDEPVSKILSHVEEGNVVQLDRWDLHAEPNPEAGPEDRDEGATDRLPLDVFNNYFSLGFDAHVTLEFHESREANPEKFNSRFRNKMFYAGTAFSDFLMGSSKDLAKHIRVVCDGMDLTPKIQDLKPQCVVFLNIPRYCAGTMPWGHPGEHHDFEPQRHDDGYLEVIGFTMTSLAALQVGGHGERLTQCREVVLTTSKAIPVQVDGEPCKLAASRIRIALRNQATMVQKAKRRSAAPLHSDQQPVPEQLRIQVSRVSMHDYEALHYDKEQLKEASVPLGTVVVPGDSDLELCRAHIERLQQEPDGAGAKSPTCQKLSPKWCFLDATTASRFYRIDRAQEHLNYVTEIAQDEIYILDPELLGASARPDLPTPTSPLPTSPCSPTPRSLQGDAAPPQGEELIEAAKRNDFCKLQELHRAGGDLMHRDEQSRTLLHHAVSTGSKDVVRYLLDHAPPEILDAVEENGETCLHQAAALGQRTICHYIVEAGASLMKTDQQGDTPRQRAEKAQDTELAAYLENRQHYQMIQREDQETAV

With `CC[C@H]1CN(C(C)c2ccc(SC(F)(F)F)cc2)[C@H](CC)CN1c1nc2nncn2c2ccc(C#N)nc12` (stereo partly drawn) [Compound 51], the IC50 against DGKa and against DGKz was less than 100 nM in each case.

As for `CC[C@H]1CN([C@H](c2ccc(S(F)(F)(F)(F)F)cc2)c2nc(C3CC3)cs2)[C@H](CC)CN1c1nc(=O)n(C)c2ccc(C#N)nc12` [Compound 98], the IC50 on DGKa and against DGKz was less than 100 nM in each case.

Regarding `Cn1c(=O)nc(N2CCCc3c(C#CC4CC4)cccc32)c2nc(C#N)ccc21` [Compound 39], the IC50 on DGKa was less than 100 nM; on DGKz it was greater than 1000 nM.

On to `CC[C@@H]1CN(c2nc3nncn3c3ccc(C#N)nc23)[C@@H](C)CN1[C@H](CC)c1ccc(C(F)(F)F)cc1` (stereo in doubt) [Compound 82], for which the IC50 against DGKa is less than 100 nM; on DGKz, 100 to 1000 nM.

As to `N#Cc1cc2c3c(n1)c(N1CCC4(CC1)CC(c1ccc(OC(F)(F)F)cc1)=NO4)nc(=O)n3CCO2` [Compound 59], the results for the IC50 at DGKa and at DGKz were less than 100 nM and 100 to 1000 nM, respectively.

As to `CC[C@@H]1CN2c3c(c(=O)n(C)c4ccc(C#N)nc34)OC[C@H]2CN1[C@H](CC)c1ccc(S(F)(F)(F)(F)F)cc1` [Compound 108], the results for the concentration for half-maximal inhibition (IC50) at DGKa and at DGKz were less than 100 nM and 100 to 1000 nM, respectively.

Take `CC[C@H]1CN([C@@H](CC)c2ccc(S(F)(F)(F)(F)F)cc2)[C@H](CC)CN1c1nc2nncn2c2ccc(C#N)nc12` (stereo in doubt) [Compound 86]: the half-inhibitory concentration (IC50) on DGKa and at DGKz was less than 100 nM throughout.

Turning to `CC[C@@H]1CN2c3c(c(=O)n(C)c4ccc(C#N)nc34)OC[C@@H]2CN1[C@H](CC)c1ccc(C(F)(F)F)cc1` [Compound 122], the IC50 against DGKa and against DGKz was less than 100 nM throughout.

Regarding `CC[C@H]1CN([C@H](CC)c2ccc(C(F)(F)F)nc2)[C@H](CC)CN1c1nc2nncn2c2ccc(C#N)nc12` (stereo in doubt) [Compound 112], the IC50 is less than 100 nM against DGKa and 100 to 1000 nM on DGKz.

For `N#Cc1ccc2c(n1)c(N1CCC3(CC1)CC(c1ccc(C(F)(F)F)cc1)=NO3)nc1nncn12` [Compound 53], the IC50 is less than 100 nM on DGKa and 100 to 1000 nM against DGKz.

With `CC[C@H]1CN([C@@H](CC)c2cccc(C(F)(F)F)c2)[C@H](CC)CN1c1nc2nncn2c2ccc(C#N)nc12` (stereo in doubt) [Compound 105], the IC50 on DGKa and against DGKz was less than 100 nM in each case.

In the case of `CC[C@H]1CN([C@@H](CC)c2ccc(C(F)(F)F)cc2)[C@H](CC)CN1c1nc2nncn2c2ccc(C#N)nc12` (single isomer, unassigned) [Compound 34], the half-inhibitory concentration (IC50) on DGKa and on DGKz was less than 100 nM each time.

For the molecule `Cc1ccc2oc(C3CCN(c4nc(=O)n(C)c5ccc6nncn6c45)CC3)nc2c1` [Compound 22], the half-maximal inhibitory concentration (IC50) against DGKa was less than 100 nM; on DGKz it was greater than 1000 nM.

In the case of `Cn1c(=O)c(C(N)=O)c(N2CCC3(CN(c4ccc(OC(F)(F)F)cc4)C3)C2)c2nc(C#N)ccc21` [Compound 15], the figures for the IC50 at DGKa and at DGKz were less than 100 nM and greater than 1000 nM, respectively.

Consider `CC[C@@H]1CN(c2nc(=O)n(C)c3ccc(C#N)nc23)[C@@H](C)CN1[C@@H](CC)c1ccc(S(F)(F)(F)(F)F)cc1` (stereo in doubt) [Compound 60], for which the 50% inhibitory concentration (IC50) against DGKa and against DGKz was less than 100 nM throughout.

Regarding `Cc1ccc2oc(C3CCN(c4nc(=O)n(C)c5cc(O[C@@H]6CCOC6)c(Cl)cc45)CC3)nc2c1` [Compound 32], the values for the IC50 against DGKa and against DGKz were less than 100 nM and greater than 1000 nM, respectively.

With `CC[C@H]1CN([C@@H](CC)c2ccc(OC(F)(F)F)cc2)[C@H](CC)CN1c1nc2nncn2c2ccc(C#N)nc12` (single isomer, unassigned) [Compound 100], the IC50 against DGKa and against DGKz was less than 100 nM throughout.

`CC[C@H]1C[C@@H](c2nc3cc(C)ccc3o2)CCN1c1nc(=O)n(C)c2cc(O[C@@H]3CCOC3)c(Cl)cc12` [Compound 94]: the IC50 against DGKa is 100 to 1000 nM; against DGKz, greater than 1000 nM.

For `CC[C@H]1CN(C(COC)c2ccc(S(F)(F)(F)(F)F)cc2)[C@H](CC)CN1c1nc(=O)n(C)c2ccc(C#N)nc12` (stereo partly drawn) [Compound 78], the IC50 at DGKa and against DGKz was less than 100 nM each time.

With `CC[C@H]1CN([C@H](c2ccc(SC(F)(F)F)cc2)c2nc(C3CC3)cs2)[C@H](CC)CN1c1nc(=O)n(C)c2ccc(C#N)nc12` [Compound 57], the IC50 at DGKa is less than 100 nM; at DGKz, 100 to 1000 nM.

For the molecule `CC[C@@H]1CN(c2nc3nncn3c3ccc(C#N)nc23)[C@@H](C)CN1[C@H](CC)c1ccc(S(F)(F)(F)(F)F)cc1` (stereo in doubt) [Compound 90], the results for the IC50 against DGKa and against DGKz were less than 100 nM and 100 to 1000 nM, respectively.

In the case of `CC[C@H]1CN([C@@H](C)c2ccc(S(F)(F)(F)(F)F)cc2)[C@H](CC)CN1c1nc(=O)n(C)c2ccc(C#N)nc12` (stereo in doubt) [Compound 62], the values for the IC50 at DGKa and on DGKz were less than 100 nM and 100 to 1000 nM, respectively.

On to `CC[C@H]1CN([C@H]2CCCCc3cc(C(F)(F)F)ccc32)[C@H](CC)CN1c1nc(=O)n(C)c2ccc(C#N)nc12` [Compound 44], for which the concentration for half-maximal inhibition (IC50) against DGKa was less than 100 nM; at DGKz, 100 to 1000 nM.

As to `CC[C@H]1CN([C@H](CC)c2cccc(C(F)(F)F)c2)[C@H](CC)CN1c1nc2nncn2c2ccc(C#N)nc12` (stereo in doubt) [Compound 106], the IC50 against DGKa was less than 100 nM; at DGKz, 100 to 1000 nM.

Regarding `CC[C@@H]1C[C@H](Oc2ccc(OC(F)(F)F)cc2)CCN1c1nc(=O)n(C)c2ccc(C#N)nc12` [Compound 16], the IC50 against DGKa is 100 to 1000 nM; against DGKz it was less than 100 nM.

For `CC[C@H]1CN([C@@H](c2ccc(S(F)(F)(F)(F)F)cc2)c2nc(C3CC3)cs2)[C@H](CC)CN1c1nc(=O)n(C)c2ccc(C#N)nc12` [Compound 99], the IC50 on DGKa and against DGKz was less than 100 nM throughout.

Take `CC[C@@H]1CN(c2nc3nncn3c3ccc(C#N)nc23)[C@@H](CC)CN1C(=O)c1ccc(C(F)(F)F)cc1` [Compound 84]: the IC50 is less than 100 nM at DGKa and greater than 1000 nM against DGKz.

As to `Cn1c(=O)nc(N2CCC3(CC2)CC(c2cccc(C(F)(F)F)c2)=NO3)c2nc(C#N)ccc21` [Compound 47], the IC50 on DGKa and against DGKz was less than 100 nM in each case.

As to `CC[C@@H]1C[C@@]2(CCN1c1nc(=O)n(C)c3ccc(C#N)nc13)CC(c1ccc(OC(F)(F)F)cc1)=NO2` (stereo in doubt) [Compound 75], the IC50 at DGKa and on DGKz was 100 to 1000 nM in each case.

For the molecule `Cn1c(=O)nc(N2CCC3(CCN(c4ccc(OC(F)(F)F)cc4)C3)CC2)c2nc(C#N)ccc21` [Compound 8], the IC50 against DGKa and on DGKz was 100 to 1000 nM in each case.

As to `CC[C@H]1CN([C@H](CC)c2ccc(OC)cc2F)[C@H](CC)CN1c1nc2nncn2c2ccc(C#N)nc12` (stereo in doubt) [Compound 116], the IC50 was less than 100 nM at DGKa and 100 to 1000 nM against DGKz.

As for `CC[C@H]1CN(C(c2ccc(S(F)(F)(F)(F)F)cc2)c2nc(C3CC3)no2)[C@H](CC)CN1c1nc(=O)n(C)c2ccc(C#N)nc12` (stereo partly drawn) [Compound 64], the IC50 against DGKa and on DGKz was less than 100 nM in each case.

As to `CC[C@H]1CN([C@@H]2CCCCc3cc(C(F)(F)F)ccc32)[C@H](CC)CN1c1nc2nncn2c2ccc(C#N)nc12` [Compound 114], the IC50 against DGKa and against DGKz was less than 100 nM throughout.

In the case of `CC[C@@H]1CN(c2nc3nncn3c3ccc(C#N)nc23)[C@@H](C)CN1[C@H](CC)c1ccc(SC(F)(F)F)cc1` (stereo in doubt) [Compound 71], the half-maximal inhibitory concentration (IC50) at DGKa was less than 100 nM; against DGKz, 100 to 1000 nM.

With `CC[C@@H]1CN(c2nc3nncn3c3ccc(C#N)nc23)[C@@H](C)CN1[C@@H](CC)c1ccc(S(F)(F)(F)(F)F)cc1` (stereo in doubt) [Compound 80], the IC50 against DGKa and against DGKz was less than 100 nM each time.

Consider `CC[C@@H]1CN2c3c(c(=O)n(C)c4ccc(C#N)nc34)OC[C@H]2CN1[C@@H](CC)c1ccc(C(F)(F)F)cc1` [Compound 107], for which the IC50 on DGKa was less than 100 nM; against DGKz, 100 to 1000 nM.

For the molecule `CC[C@H]1CN([C@@H](CC)c2ccc(C(F)(F)F)nc2)[C@H](CC)CN1c1nc2nncn2c2ccc(C#N)nc12` (stereo in doubt) [Compound 111], the IC50 against DGKa and against DGKz was less than 100 nM in each case.

Take `CC[C@H]1CN([C@@H](CC)c2ccc(OC)cc2F)[C@H](CC)CN1c1nc2nncn2c2ccc(C#N)nc12` (stereo in doubt) [Compound 115]: the IC50 against DGKa and at DGKz was less than 100 nM throughout.

Consider `Cc1ccc2oc(C3CCN(c4nc(=O)n(C)c5cc(O[C@H]6CCOC6)c(Cl)cc45)CC3)nc2c1` [Compound 33], for which the IC50 on DGKa and at DGKz was less than 100 nM throughout.

For the molecule `CC[C@H]1CN([C@H](C)c2ccc(S(F)(F)(F)(F)F)cc2)[C@H](CC)CN1c1nc(=O)n(C)c2ccc(C#N)nc12` (stereo in doubt) [Compound 63], the results for the IC50 on DGKa and at DGKz were less than 100 nM and 100 to 1000 nM, respectively.

Regarding `Cn1c(=O)nc(N2CCCc3c(C#CC4CC4)cccc32)c2nc(C#N)ccc21` [Compound 42], the figures for the concentration for half-maximal inhibition (IC50) on DGKa and at DGKz were less than 100 nM and 100 to 1000 nM, respectively.

Turning to `CC[C@H]1CN([C@@H](CC)c2ccc(S(F)(F)(F)(F)F)cc2)[C@H](CC)CN1c1nc(=O)n2c3c(cc(C#N)nc13)OCC2` (stereo in doubt) [Compound 83], the IC50 on DGKa was less than 100 nM; against DGKz, 100 to 1000 nM.

As to `CC[C@H]1CN([C@H](C)c2ccc(SC(F)(F)F)cc2)[C@H](CC)CN1c1nc2nncn2c2ccc(C#N)nc12` (stereo in doubt) [Compound 52], the IC50 was less than 100 nM at DGKa and 100 to 1000 nM at DGKz.

Take `N#Cc1ccc2c(n1)c(N1CCC3(CC1)CC(c1ccc(SC(F)(F)F)cc1)=NO3)nc1nncn12` [Compound 54]: the IC50 at DGKa was less than 100 nM; at DGKz it was 100 to 1000 nM.

With `CC[C@H]1CN([C@H](CC)c2cccc(S(F)(F)(F)(F)F)c2)[C@H](CC)CN1c1nc(=O)n(C)c2ccc(C#N)nc12` (stereo in doubt) [Compound 56], the IC50 against DGKa and at DGKz was 100 to 1000 nM in each case.
